Where two headings read alike, the source gives them in different places.
Assay: Free drug in the brain after hypothermia experiment
Format: in vivo
Conditions: C57Bl/6, mouse, intraperitoneal, one hour after dosing
Procedure: Following hypothermia induction, 200–300 μL of blood was collected via cardiac punch and transferred to K2EDTA-treated BD Microtainers (Becton Dickinson and Co., Franklin Lakes, NJ). Mice were sacrificed via decapitation and brains were quickly removed and bisected sagitally. The right cortices, were isolated, placed into 2 mL microtubes along with a single 5 mm stainless steel bead and the left cortices were placed into 2 mL Lysing Matrix A tubes (MP Biomedicals, Santa Ana, CA). Both tubes were immediately snap frozen in liquid nitrogen. The whole blood-containing microtainers were centrifuged (2000 x g, 5 minutes) and plasma was transferred to 96-well plates for pharmacokinetic determination. […] The protein content of each sample was quantified using a Direct Detect Infrared Spectrometer (EMD Millipore Corp., Burlington, MA).
In vitro plasma and brain protein binding values were generated via the Rapid Equilibrium Dialysis method. […] At the conclusion of incubation, samples were taken from both matrix and buffered compartments, matrix-matched using blank buffer and matrix, extracted with acetonitrile, diluted with water, and analyzed utilizing an Agilent RapidFire 365 high-throughput LC coupled with MS/MS detection via an AB Sciex 5500. Free fractions (fu) were then calculated by comparing peak-area ratios of matrix and buffered compartments. […]

CCC(C)(O)C#Cc1cc2c(ccn2-c2ccnc(N)n2)cn1 (centres unmarked) [BIIB-TTBK1i]
concentration at 1 h (25mg/kg I.P., read-out: concentration of free drug in the brain): 207 nM | concentration at 1 h (50mg/kg I.P., read-out: average free drug in the brain): 602 nM

Reference: publication PMC7138307 (PLoS ONE, 2020)
